Patent US10881599B2, “Whitening composition including novel kaempferol-based compound derived from post-fermented tea” (AMOREPACIFIC CORPORATION, priority 2017, dated 2021)

Columns and labels:
[1] = tested on: Mel-Ab cell line; experiment: Melanin production-inhibitory effect (Dooley's method); type: cell-based, C57BL/6; conditions: Mel-Ab cells, melanin after 5 days, absorbance at 400 nm
[2] = tested on: skin; experiment: Human repeated insult patch test (HRIPT), skin accumulation stimulation; type: in vivo; design: key to Skin reactivity (ICDRG criteria): −: negative (no response); ±: doubtful or slight erythema, etc.; +: weak reaction (which is accompanied with no phlyctenule), erythema, papule; ++: severe reaction (which is accompanied with phlyctenule), erythema, papule, phlyctenule; +++: strong reaction, bullae reaction; conditions: for Number of subjects with ±, +, or ++ reactivity, 1st: 1st patch; for Number of subjects with ±, +, or ++ reactivity, 2nd: 2nd patch; for Number of subjects with ±, +, or ++ reactivity, 3rd: 3rd patch; for Number of subjects with ±, +, or ++ reactivity, 4th: 4th patch; for Number of subjects with ±, +, or ++ reactivity, 5th: 5th patch; for Number of subjects with ±, +, or ++ reactivity, 6th: 6th patch; for Number of subjects with ±, +, or ++ reactivity, 7th: 7th patch; for Number of subjects with ±, +, or ++ reactivity, 8th: 8th patch; for Average reactivity: 9 patches, 15 subjects, less than 3 is considered stable; for Number of subjects with ±, +, or ++ reactivity, 9th: 9th patch
Protocol: Human repeated insult patch tests (HRIPT) were performed to confirm the skin accumulation stimulation of the kaempferol3-O-[2-O″-(E)-p-coumaroyl][beta-D-glucopyranosyl-(1→3)-O-alpha-L-rhamnopyranosyl-(1→6)-O-beta-D-glucopyranoside] and to calculate the concentration range available for the skin.
Specifically, 15 healthy adult subjects were randomly selected, and the test composition (the skin composition including an emulsifier, a stabilizer, purified water, etc. in addition to the compound) containing 0.5 wt %, 1 wt %, and 3 wt % of the compound was added dropwise by 20 μl per chamber (IQ chamber, Epitest Ltd, Finland). After 24 hours from patching the upper right part of the back of a subject, it was replaced with the new patch. A total of 9 patches were conducted, three times a week for total 3 weeks, in such manner, the skin reactions before and after patch were examined every time, and the skin reactions until 48 hours after removing the final patch were observed, and the average reactivity was observed.
The skin response was determined according to the criteria of the International Contact Dermatitis Research Group (ICDRG). ‘New material 33’ in the table above is kaempferol3-O-[2-O″-(E)-p-coumaroyl][beta-D-glucopyranosyl-(1→3)-O-alpha-L-rhamnopyranosyl-(1→6)-O-beta-D-glucopyranoside].

[3] = molecular target: mushroom tyrosinase; experiment: Tyrosinase activity-inhibitory effect; type: biochemical; conditions: L-tyrosine, 20 minutes at 37° C., absorbance at 490 nm
Protocol: The tyrosinase activity-inhibitory effect of new material 33 was evaluated. Specifically, tyrosinase and tyrosine derived from mushrooms were obtained from Sigma Chemical. […] Tyrosinase activity was assessed by measuring the absorbance at 490 nm using a microplate reader (Bio-Rad 3550, Richmond, Calif., U.S.A.) after an enzyme reaction for 20 minutes at 37° C.

In the case of `C[C@@H]1O[C@@H](OC[C@H]2O[C@@H](Oc3c(-c4ccc(O)cc4)oc4cc(O)cc(O)c4c3=O)[C@H](OC(=O)/C=C/c3ccc(O)cc3)[C@@H](O)[C@@H]2O)[C@H](O)[C@H](O[C@@H]2O[C@H](CO)[C@@H](O)[C@H](O)[C@H]2O)[C@H]1O` [new material 33, kaempferol3-O-[2-O″-(E)-p-coumaroyl][beta-D-glucopyranosyl-(1→3)-O-alpha-L-rhamnopyranosyl-(1→6)-O-beta-D-glucopyranoside]], the “Melanin production-inhibitory effect IC50” value [1] is reported as 15.7 ppm, the “Skin reactivity (ICDRG criteria)” value ([2]; 0.5 wt %, 1 wt % and 3 wt %, all subjects, all patches) is reported as “−” and the “Number of subjects with ±, +, or ++ reactivity, 1st” value (shortened to “Number of subjects with ±, + … 1st”) ([2]; 0.5 wt %, line 1 of 3 (±)) is reported as 0 person. The “Number of subjects with ±, + … 1st” value ([2]; 0.5 wt %, line 2 of 3 (+)) was 0 person, the “Number of subjects with ±, + … 1st” value ([2]; 0.5 wt %, line 3 of 3 (++)) was 0 person and the “Number of subjects with ±, +, or ++ reactivity, 2nd” value (from here on “Number of subjects with ±, + … 2nd”) ([2]; 0.5 wt %, line 1 of 3 (±)) was 0 person. For the same molecule, the “Number of subjects with ±, + … 2nd” value ([2]; 0.5 wt %, line 2 of 3 (+)) was 0 person, the “Number of subjects with ±, + … 2nd” value ([2]; 0.5 wt %, line 3 of 3 (++)) was 0 person and the “Number of subjects with ±, +, or ++ reactivity, 3rd” value (“Number of subjects with ±, + … 3rd” for short) ([2]; 0.5 wt %, line 1 of 3 (±)) was 0 person. The “Number of subjects with ±, + … 3rd” value ([2]; 0.5 wt %, line 2 of 3 (+)) was 0 person, the “Number of subjects with ±, + … 3rd” value ([2]; 0.5 wt %, line 3 of 3 (++)) was 0 person and the “Number of subjects with ±, +, or ++ reactivity, 4th” value (“Number of subjects with ±, + … 4th” for short) ([2]; 0.5 wt %, line 1 of 3 (±)) was 0 person. For the same molecule, the “Number of subjects with ±, + … 4th” value ([2]; 0.5 wt %, line 2 of 3 (+)) was 0 person, the “Number of subjects with ±, + … 4th” value ([2]; 0.5 wt %, line 3 of 3 (++)) was 0 person and the “Number of subjects with ±, +, or ++ reactivity, 5th” value (“Number of subjects with ±, + … 5th” for short) ([2]; 0.5 wt %, line 1 of 3 (±)) was 0 person. The “Number of subjects with ±, + … 5th” value ([2]; 0.5 wt %, line 2 of 3 (+)) was 0 person, the “Number of subjects with ±, + … 5th” value ([2]; 0.5 wt %, line 3 of 3 (++)) was 0 person and the “Number of subjects with ±, +, or ++ reactivity, 6th” value (“Number of subjects with ±, + … 6th” for short) ([2]; 0.5 wt %, line 1 of 3 (±)) was 0 person. For the same molecule, the “Number of subjects with ±, + … 6th” value ([2]; 0.5 wt %, line 2 of 3 (+)) was 0 person, the “Number of subjects with ±, + … 6th” value ([2]; 0.5 wt %, line 3 of 3 (++)) was 0 person and the “Number of subjects with ±, +, or ++ reactivity, 7th” value (“Number of subjects with ±, + … 7th” for short) ([2]; 0.5 wt %, line 1 of 3 (±)) was 0 person. The “Number of subjects with ±, + … 7th” value ([2]; 0.5 wt %, line 2 of 3 (+)) was 0 person, the “Number of subjects with ±, + … 7th” value ([2]; 0.5 wt %, line 3 of 3 (++)) was 0 person and the “Number of subjects with ±, +, or ++ reactivity, 8th” value (“Number of subjects with ±, + … 8th” for short) ([2]; 0.5 wt %, line 1 of 3 (±)) was 0 person. The “Number of subjects with ±, + … 8th” value ([2]; 0.5 wt %, line 2 of 3 (+)) was 0 person, the “Number of subjects with ±, + … 8th” value ([2]; 0.5 wt %, line 3 of 3 (++)) was 0 person and the Average reactivity ([2]; 0.5 wt %) was 0. The “Number of subjects with ±, +, or ++ reactivity, 9th” value (“Number of subjects with ±, + … 9th” for short) ([2]; 0.5 wt %, line 1 of 3 (±)) was 0 person, the “Number of subjects with ±, + … 9th” value ([2]; 0.5 wt %, line 2 of 3 (+)) was 0 person and the “Number of subjects with ±, + … 9th” value ([2]; 0.5 wt %, line 3 of 3 (++)) was 0 person. The “Number of subjects with ±, + … 1st” value ([2]; 1 wt %, line 1 of 3 (±)) was 0 person, the “Number of subjects with ±, + … 1st” value ([2]; 1 wt %, line 2 of 3 (+)) was 0 person and the “Number of subjects with ±, + … 1st” value ([2]; 1 wt %, line 3 of 3 (++)) was 0 person. The “Number of subjects with ±, + … 2nd” value ([2]; 1 wt %, line 1 of 3 (±)) was 0 person, the “Number of subjects with ±, + … 2nd” value ([2]; 1 wt %, line 2 of 3 (+)) was 0 person and the “Number of subjects with ±, + … 2nd” value ([2]; 1 wt %, line 3 of 3 (++)) was 0 person. For the same molecule, the “Number of subjects with ±, + … 3rd” value ([2]; 1 wt %, line 1 of 3 (±)) was 0 person, the “Number of subjects with ±, + … 3rd” value ([2]; 1 wt %, line 2 of 3 (+)) was 0 person and the “Number of subjects with ±, + … 3rd” value ([2]; 1 wt %, line 3 of 3 (++)) was 0 person. For the same molecule, the “Number of subjects with ±, + … 4th” value ([2]; 1 wt %, line 1 of 3 (±)) was 0 person, the “Number of subjects with ±, + … 4th” value ([2]; 1 wt %, line 2 of 3 (+)) was 0 person and the “Number of subjects with ±, + … 4th” value ([2]; 1 wt %, line 3 of 3 (++)) was 0 person. The “Number of subjects with ±, + … 5th” value ([2]; 1 wt %, line 1 of 3 (±)) was 0 person, the “Number of subjects with ±, + … 5th” value ([2]; 1 wt %, line 2 of 3 (+)) was 0 person and the “Number of subjects with ±, + … 5th” value ([2]; 1 wt %, line 3 of 3 (++)) was 0 person. For the same molecule, the “Number of subjects with ±, + … 6th” value ([2]; 1 wt %, line 1 of 3 (±)) was 0 person, the “Number of subjects with ±, + … 6th” value ([2]; 1 wt %, line 2 of 3 (+)) was 0 person and the “Number of subjects with ±, + … 6th” value ([2]; 1 wt %, line 3 of 3 (++)) was 0 person. The “Number of subjects with ±, + … 7th” value ([2]; 1 wt %, line 1 of 3 (±)) was 0 person, the “Number of subjects with ±, + … 7th” value ([2]; 1 wt %, line 2 of 3 (+)) was 0 person and the “Number of subjects with ±, + … 7th” value ([2]; 1 wt %, line 3 of 3 (++)) was 0 person. The “Number of subjects with ±, + … 8th” value ([2]; 1 wt %, line 1 of 3 (±)) was 0 person, the “Number of subjects with ±, + … 8th” value ([2]; 1 wt %, line 2 of 3 (+)) was 0 person and the “Number of subjects with ±, + … 8th” value ([2]; 1 wt %, line 3 of 3 (++)) was 0 person. For the same molecule, the Average reactivity ([2]; 1 wt %) was 0, the “Number of subjects with ±, + … 9th” value ([2]; 1 wt %, line 1 of 3 (±)) was 0 person and the “Number of subjects with ±, + … 9th” value ([2]; 1 wt %, line 2 of 3 (+)) was 0 person. The “Number of subjects with ±, + … 9th” value ([2]; 1 wt %, line 3 of 3 (++)) was 0 person, the “Number of subjects with ±, + … 1st” value ([2]; 3 wt %, line 1 of 3 (±)) was 0 person and the “Number of subjects with ±, + … 1st” value ([2]; 3 wt %, line 2 of 3 (+)) was 0 person. For the same molecule, the “Number of subjects with ±, + … 1st” value ([2]; 3 wt %, line 3 of 3 (++)) was 0 person, the “Number of subjects with ±, + … 2nd” value ([2]; 3 wt %, line 1 of 3 (±)) was 0 person and the “Number of subjects with ±, + … 2nd” value ([2]; 3 wt %, line 2 of 3 (+)) was 0 person. For the same molecule, the “Number of subjects with ±, + … 2nd” value ([2]; 3 wt %, line 3 of 3 (++)) was 0 person, the “Number of subjects with ±, + … 3rd” value ([2]; 3 wt %, line 1 of 3 (±)) was 0 person and the “Number of subjects with ±, + … 3rd” value ([2]; 3 wt %, line 2 of 3 (+)) was 0 person. For the same molecule, the “Number of subjects with ±, + … 3rd” value ([2]; 3 wt %, line 3 of 3 (++)) was 0 person, the “Number of subjects with ±, + … 4th” value ([2]; 3 wt %, line 1 of 3 (±)) was 0 person and the “Number of subjects with ±, + … 4th” value ([2]; 3 wt %, line 2 of 3 (+)) was 0 person. For the same molecule, the “Number of subjects with ±, + … 4th” value ([2]; 3 wt %, line 3 of 3 (++)) was 0 person, the “Number of subjects with ±, + … 5th” value ([2]; 3 wt %, line 1 of 3 (±)) was 0 person and the “Number of subjects with ±, + … 5th” value ([2]; 3 wt %, line 2 of 3 (+)) was 0 person. The “Number of subjects with ±, + … 5th” value ([2]; 3 wt %, line 3 of 3 (++)) was 0 person, the “Number of subjects with ±, + … 6th” value ([2]; 3 wt %, line 1 of 3 (±)) was 0 person and the “Number of subjects with ±, + … 6th” value ([2]; 3 wt %, line 2 of 3 (+)) was 0 person. For the same molecule, the “Number of subjects with ±, + … 6th” value ([2]; 3 wt %, line 3 of 3 (++)) was 0 person, the “Number of subjects with ±, + … 7th” value ([2]; 3 wt %, line 1 of 3 (±)) was 0 person and the “Number of subjects with ±, + … 7th” value ([2]; 3 wt %, line 2 of 3 (+)) was 0 person. The “Number of subjects with ±, + … 7th” value ([2]; 3 wt %, line 3 of 3 (++)) was 0 person, the “Number of subjects with ±, + … 8th” value ([2]; 3 wt %, line 1 of 3 (±)) was 0 person and the “Number of subjects with ±, + … 8th” value ([2]; 3 wt %, line 2 of 3 (+)) was 0 person. The “Number of subjects with ±, + … 8th” value ([2]; 3 wt %, line 3 of 3 (++)) was 0 person, the Average reactivity ([2]; 3 wt %) was 0 and the “Number of subjects with ±, + … 9th” value ([2]; 3 wt %, line 1 of 3 (±)) was 0 person. The “Number of subjects with ±, + … 9th” value ([2]; 3 wt %, line 2 of 3 (+)) was 0 person, the “Number of subjects with ±, + … 9th” value ([2]; 3 wt %, line 3 of 3 (++)) was 0 person and the “Tyrosinase activity-inhibitory effect IC50” value [3] was 11 ppm.
